Numbered stars: 1 amine (or outer) side, 2 acyl side, 3 side chain; on linkers, the order of the positions; unused ones are H or OH. Bridge positions count the residues as written; N and C are the ends. Square brackets hold non-standard residues; d marks the D form. Peptide text beside a SMILES is read from it. X1 = CC(C)CCCCCCCCC[C@H](CC(=O)[*:1])O[*:2]
Tests used:
Type in all cases: cell-based
[1] = test system: Magnaporthe grisea; settings: 1.56 to 12.56 μg/mL, 100 μL in cup, 25° C. for 1 to 3 days
[2] = test system: Fusarium oxysporum
[3] = test system: Trichophyton mentagrophytes

Row | Compound | antifungal activity (growth inhibition of test microorganism) [1] | antifungal activity (growth inhibition of test microorganism) [2] | antifungal activity (growth inhibition of test microorganism) [3]
1 | CC(C)CCCCCCCCC[C@@H]1CC(=O)N[C@@H](CCC(=O)O)C(=O)N[C@@H](CC(C)C)C(=O)N[C@H](CC(C)C)C(=O)N[C@@H](C(C)C)C(=O)N[C@@H](CC(=O)O)C(=O)N[C@H](CC(C)C)C(=O)N[C@@H](CC(C)C)C(=O)O1 [surfactin] (EL[dL]VD[dL]L; linker N-C via X1) | weaker than iturin A, but slight inhibitory activities | did not show antifungal activity | –
2 | iturin A | strong antifungal activities | strong antifungal activity | strong antifungal activities

Reference: US20130165635A1 (priority 2010, published 2013)
